Where a SMILES comes first, the peptide text is derived from it. [ ]: non-standard residue; d: D form. NMeF = CN[C@@H](Cc1ccccc1)C(=O)O; dNMeF = CN[C@H](Cc1ccccc1)C(=O)O; NMeL = CN[C@@H](CC(C)C)C(=O)O; dNMeL = CN[C@H](CC(C)C)C(=O)O; dNMeV = CN[C@@H](C(=O)O)C(C)C; NMeV = CN[C@H](C(=O)O)C(C)C; NMeA = CN[C@@H](C)C(=O)O; dNMeA = CN[C@H](C)C(=O)O; Sar = CNCC(=O)O
Tests used:
[1] = PAMPA
in vitro = conditions: PAMPA, PAMPA_Papp_Avg

| Compound | PAMPA_R1 [1] | PAMPA_R3 [1] | Papp (in vitro) [×10⁻⁶ cm/s] |
| --- | --- | --- | --- |
| CC(C)C[C@H]1NC(=O)[C@@H]2CCCN2C(=O)[C@@H]2CCCN2C(=O)[C@@H](C)NC(=O)[C@@H](Cc2ccccc2)NC(=O)[C@H]2CCCN2C1=O [Design D6.3, DPRO DPHE DALA PRO PRO DLEU] (cyclo(PP[dL][dP][dF][dA])) | 5.23e-06 cm/s | 7.03e-07 cm/s | 1.99 |
| CC(C)C[C@H]1NC(=O)[C@@H]2CCCN2C(=O)[C@@H]2CCCN2C(=O)[C@@H](C)NC(=O)[C@@H](Cc2ccccc2)N(C)C(=O)[C@H]2CCCN2C1=O [Design D6.4, DPRO *DPHE DALA PRO PRO DLEU] (cyclo(PP[dL][dP][dNMeF][dA])) | 1.85e-05 cm/s | 1.58e-05 cm/s | 13.9 |
| CC(C)[C@@H]1NC(=O)[C@@H]2CCCN2C(=O)[C@@H]2CCCN2C(=O)[C@@H](Cc2ccccc2)NC(=O)[C@@H]2CCCN2C(=O)[C@@H](Cc2ccccc2)NC1=O [Design D6.5, PRO PRO VAL DPHE PRO DPHE] (cyclo(PPV[dF]P[dF])) | 3.17e-06 cm/s | 3.12e-06 cm/s | 2.41 |
| CC(C)[C@H]1C(=O)N[C@H](Cc2ccccc2)C(=O)N2CCC[C@H]2C(=O)N[C@H](Cc2ccccc2)C(=O)N2CCC[C@H]2C(=O)N2CCC[C@H]2C(=O)N1C [Design D6.6, PRO PRO *VAL DPHE PRO DPHE] (cyclo([NMeV][dF]P[dF]PP)) | 2.64e-06 cm/s | 6.73e-06 cm/s | 3.64 |
| CC(C)[C@H]1NC(=O)[C@@H]2CCCN2C(=O)[C@@H](C)NC(=O)[C@@H](Cc2ccccc2)NC(=O)[C@@H]2CCCN2C(=O)[C@H](Cc2ccccc2)NC1=O [Design D6.7, DPHE DALA PRO DVAL PHE PRO] (cyclo(FP[dF][dA]P[dV])) | 6.27e-07 cm/s | 3.67e-07 cm/s | 0.424 |
| CC(C)C[C@H]1C(=O)N2CCC[C@@H]2C(=O)N[C@@H](Cc2ccccc2)C(=O)N2CCC[C@H]2C(=O)N(C)[C@H](C(C)C)C(=O)N[C@H](Cc2ccccc2)C(=O)N1C [Design D6.10, *DVAL DPHE *LEU DPRO PHE PRO] (cyclo(FP[dNMeV][dF][NMeL][dP])) | 1.23e-05 cm/s | 1.13e-05 cm/s | 11.6 |
| CC[C@H](C)[C@@H]1NC(=O)[C@H]2CCCN2C(=O)[C@@H]2CCCN2C(=O)[C@H](CC(C)C)NC(=O)[C@@H](C(C)C)NC(=O)[C@@H](CC(C)C)N(C)C(=O)[C@@H]2CCCN2C1=O [Design D7.1, PRO *DLEU DVAL LEU PRO DPRO ILE] (cyclo(IP[dNMeL][dV]LP[dP])) | 2.76e-06 cm/s | 3.53e-06 cm/s | 2.93 |
| CC[C@H](C)[C@@H]1NC(=O)[C@H](CC(C)C)N(C)C(=O)[C@H]2CCCN2C(=O)[C@@H](CC(C)C)NC(=O)[C@H](CC(C)C)NC(=O)[C@@H](CC(C)C)N(C)C(=O)[C@@H]2CCCN2C1=O [Design D7.2, DLEU DPRO *LEU ILE PRO *DLEU LEU] (cyclo(IP[dNMeL]L[dL][dP][NMeL])) | 1.48e-05 cm/s |  | 11.6 |
| CC(C)C[C@@H]1NC(=O)[C@@H](CC(C)C)NC(=O)[C@H]2CCCN2C(=O)[C@@H]2CCCN2C(=O)[C@@H](CC(C)C)NC(=O)[C@@H](CC(C)C)N(C)C(=O)[C@@H]2CCCN2C1=O [Design D7.5, LEU PRO *DLEU DLEU PRO DPRO DLEU] (cyclo(LP[dNMeL][dL]P[dP][dL])) | 6.72e-06 cm/s |  | 6.64 |
| CC(C)C[C@@H]1NC(=O)[C@@H]2CCCN2C(=O)[C@H]2CCCN2C(=O)[C@H](CC(C)C)NC(=O)[C@H](C)N(C)C(=O)[C@H]2CCCN2C(=O)[C@@H](CC(C)C)NC1=O [Design D7.6, DLEU DPRO *ALA LEU DPRO PRO LEU] (cyclo(L[dL][dP][NMeA]L[dP]P)) | 2.16e-06 cm/s | 6.12e-06 cm/s | 3.62 |
| CC[C@H](C)[C@@H]1NC(=O)[C@H](Cc2ccccc2)N(C)C(=O)[C@H]2CCCN2C(=O)[C@H]([C@@H](C)CC)NC(=O)[C@H](C(C)C)NC(=O)[C@@H](C)NC(=O)[C@H]2CCCN2C1=O [Design D7.9, VAL ILE DPRO *PHE ILE DPRO DALA] (cyclo(I[dP][NMeF]I[dP][dA]V)) | 6.71e-06 cm/s | 6.53e-06 cm/s | 7.09 |
| CC(C)C[C@@H]1C(=O)N[C@H](CC(C)C)C(=O)N2CCC[C@@H]2C(=O)N2CCC[C@H]2C(=O)N(C)[C@H](CC(C)C)C(=O)N[C@H](CC(C)C)C(=O)N2CCC[C@@H]2C(=O)N2CCC[C@H]2C(=O)N1C [Design D8.4, DPRO PRO *DLEU DLEU DPRO PRO *DLEU DLEU] (cyclo([dNMeL][dL][dP]P[dNMeL][dL][dP]P)) | 1.49E-07 | 1.12E-07 | 0.136 |
| CC(C)C[C@@H]1NC(=O)[C@@H](CC(C)C)N(C)C(=O)[C@@H](CC(C)C)N(C)C(=O)[C@@H](CC(C)C)N(C)C(=O)[C@H](CC(C)C)NC(=O)[C@@H]2CCCN2C(=O)[C@H]2CCCN2C(=O)[C@H](Cc2ccccc2)NC1=O [Design D8.7, PHE DPRO PRO LEU *DLEU *DLEU *DLEU LEU] (cyclo(L[dNMeL][dNMeL][dNMeL]LF[dP]P)) | 1.94E-06 | 8.74E-07 | 1.27 |
| CC[C@H](C)[C@@H]1NC(=O)[C@@H]2CCCN2C(=O)[C@H]2CCCN2C(=O)[C@@H](CC(C)C)NC(=O)[C@@H](CC(C)C)N(C)C(=O)[C@@H]2CCCN2C(=O)[C@H](Cc2ccccc2)N(C)C(=O)[C@@H](Cc2ccccc2)NC1=O [Design D8.14, PRO ILE DPHE*PHE PRO *DLEU DLEU DPRO] (cyclo(I[dF][NMeF]P[dNMeL][dL][dP]P)) | 1.14E-06 | 7.14E-07 | 0.971 |
| CC[C@H](C)[C@@H]1NC(=O)[C@@H]2CCCN2C(=O)CN(C)C(=O)[C@@H](CC(C)C)NC(=O)[C@@H](CC(C)C)N(C)C(=O)[C@@H]2CCCN2C(=O)[C@H](Cc2ccccc2)N(C)C(=O)[C@@H](Cc2ccccc2)NC1=O [Design D8.15, PRO ILE DPHE*PHE PRO *DLEU DLEU *GLY] (cyclo(I[dF][NMeF]P[dNMeL][dL][Sar]P)) | 8.94E-07 | 9.27E-07 | 0.768 |
| CC[C@H](C)[C@@H]1NC(=O)[C@@H](C(C)C)NC(=O)[C@H](CC(C)C)N(C)C(=O)[C@H]2CCCN2C(=O)[C@H]2CCCN2C(=O)[C@H](C(C)C)NC(=O)[C@@H](CC(C)C)NC(=O)[C@H]2CCCN2C1=O [Design D8.16, DPRO DLEU VAL DPRO DPRO *LEU DVAL ILE] (cyclo(I[dP][dL]V[dP][dP][NMeL][dV])) | 2.86E-06 | 1.69E-06 | 2.16 |
| CC[C@H](C)[C@@H]1NC(=O)[C@@H](C)N(C)C(=O)[C@H]2CCCN2C(=O)[C@H]2CCCN2C(=O)[C@H](Cc2ccccc2)NC(=O)[C@@H](CC(C)C)NC(=O)[C@@H](CC(C)C)N(C)C(=O)[C@@H]2CCCN2C1=O [Design D8.17, PRO *DLEU DLEU PHE DPRO DPRO *DALA ILE] (cyclo(F[dP][dP][dNMeA]IP[dNMeL][dL])) | 5.94E-07 | 8.83E-07 | 0.72 |
| CC[C@@H](C)[C@H]1NC(=O)[C@@H]2CCCN2C(=O)[C@@H](CC(C)C)N(C)C(=O)[C@@H](C(C)C)NC(=O)[C@@H]2CCCN2C(=O)[C@@H](CC(C)C)N(C)C(=O)[C@H](C)N(C)C(=O)[C@@H](C)NC1=O [Design D8.18, DILE DALA *ALA *DLEU PRO DVAL *DLEU PRO] (cyclo([NMeA][dNMeL]P[dV][dNMeL]P[dI][dA])) | 1.31E-06 | 9.35E-07 | 1.04 |
| CC(C)C[C@H]1NC(=O)[C@H]2CCCN2C(=O)[C@H](CC(C)C)N(C)C(=O)[C@@H](C)N(C)C(=O)[C@@H](Cc2ccccc2)NC(=O)[C@@H](C(C)C)NC(=O)[C@H]2CCCN2C(=O)[C@@H](CC(C)C)NC1=O [Design D8.19, DPHE *DALA *LEU DPRO DLEU DLEU DPRO DVAL] (cyclo([NMeL][dP][dL][dL][dP][dV][dF][dNMeA])) | 3.45E-06 | 2.33E-06 | 2.88 |
| CC(C)C[C@@H]1C(=O)N(C)[C@H](Cc2ccccc2)C(=O)N(C)[C@@H](CC(C)C)C(=O)N[C@H](C(C)C)C(=O)N[C@H](C)C(=O)N2CCC[C@@H]2C(=O)N2CCC[C@H]2C(=O)N[C@H](C)C(=O)N1C [Design D8.20, PRO DALA *DLEU *DPHE *LEU DVAL DALA DPRO] (cyclo([dA][dNMeL][dNMeF][NMeL][dV][dA][dP]P)) | 1.00E-06 | 1.46E-06 | 1.08 |
| CC(C)C[C@@H]1C(=O)N[C@@H](C(C)C)C(=O)N[C@@H](C)C(=O)N2CCC[C@H]2C(=O)N2CCC[C@@H]2C(=O)N[C@@H](C(C)C)C(=O)N[C@@H](C)C(=O)N(C)[C@@H](CC(C)C)C(=O)N1C [Design D8.22, ALA PRO DPRO VAL ALA *LEU *DLEU VAL] (cyclo(A[NMeL][dNMeL]VAP[dP]V)) | 2.34E-07 | 1.57E-07 | 0.215 |
| CC(C)C[C@@H]1C(=O)N(C)[C@H](CC(C)C)C(=O)N[C@H](CC(C)C)C(=O)N[C@@H](C(C)C)C(=O)N2CCC[C@@H]2C(=O)N2CCC[C@H]2C(=O)N[C@H](CC(C)C)C(=O)N[C@@H](C(C)C)C(=O)N1C [Design D8.23, DLEU VAL *DLEU *DLEU DLEU VAL DPRO PRO] (cyclo([dL]V[dNMeL][dNMeL][dL]V[dP]P)) | 1.18E-06 | 1.40E-06 | 1.28 |
| CC(C)C[C@@H]1C(=O)N[C@H](C)C(=O)N(C)[C@H](CC(C)C)C(=O)N2CCC[C@@H]2C(=O)N[C@H](CC(C)C)C(=O)N[C@@H](C)C(=O)N[C@H](CC(C)C)C(=O)N2CCC[C@@H]2C(=O)N1C [Design D8.25, DLEU DPRO *DLEU DALA *DLEU DPRO DLEU ALA] (cyclo(A[dL][dP][dNMeL][dA][dNMeL][dP][dL])) | 7.42E-07 | 9.32E-07 | 0.824 |
| CC[C@H](C)[C@@H]1NC(=O)[C@H](CC(C)C)N(C)C(=O)[C@H]2CCCN2C(=O)[C@H]2CCCN2C(=O)[C@H](Cc2ccccc2)NC(=O)[C@@H](CC(C)C)NC(=O)[C@H]2CCCN2C(=O)[C@@H]2CCCN2C1=O [Design D8.27, PHE DPRO DPRO *LEU ILE PRO DPRO DLEU] (cyclo(F[dP][dP][NMeL]IP[dP][dL])) | 2.88E-07 | 2.76E-07 | 0.282 |

Reference: article PMC9490236, “Accurate de novo design of membrane-traversing macrocycles” (Cell, 2022)
